Test systems include SN12C renal; OVCAR-8 ovarian; MCF7 breast; MDA-MB-231 breast; SK-MEL-28 melanoma; HL-60(TB) leukemia; CCRF-CEM leukemia; OVCAR-5 ovarian; NCI-H226 lung; 786-0 renal; KM12 colon; SF-539 CNS; BT-549 breast; IGROV1 ovarian; MALME-3M melanoma; NCI-H460 lung; DU-145 prostate; A549 NSCLC; A498 renal; MDA-MB-435.
What all share (assay): DTP human tumour cell line panel, 48 h

The text below walks through data of PubChem BioAssay (NCI).

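Step 1: Grow cells in 96-well plates. Step 2: Expose to compound for 48 hours at 5 concentrations. Step 3: Interpolate endpoints linearly; if unreached, use highest concentration. TGI: concentration producing complete growth inhibition.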

Take `NC(N)=NS(=O)(=O)c1ccc(NNc2c3ccccc3nc3c(C(=O)Nc4ccc(S(N)(=O)=O)cc4)cccc23)cc1`: the TGI with SN12C renal was greater than 100 µM; in the test with OVCAR-8 ovarian it was greater than 100 µM; with MCF7 breast, 70.5 µM; in the test with MDA-MB-231 breast, greater than 100 µM; in the test on SK-MEL-28 melanoma, greater than 100 µM; in the test on HL-60(TB) leukemia it was 77.9 µM. The TGI is 88.7 µM in the test on CCRF-CEM leukemia; greater than 100 µM with OVCAR-5 ovarian; greater than 100 µM with NCI-H226 lung; greater than 100 µM in the test on 786-0 renal; greater than 100 µM in the test with KM12 colon; greater than 100 µM with SF-539 CNS. Moreover, the TGI with BT-549 breast was 70.2 µM; in the test on IGROV1 ovarian, greater than 100 µM; in the test on MALME-3M melanoma it was greater than 100 µM; in the test on NCI-H460 lung it was greater than 100 µM; in the test with DU-145 prostate, greater than 100 µM; in the test with A549 NSCLC it was greater than 100 µM. Moreover, the TGI in the test with A498 renal and in the test on MDA-MB-435 was greater than 100 µM throughout.

As for `CN(CC#N)C(=O)Cc1ccc([N+](=O)[O-])cc1`, the total growth inhibition concentration (TGI) in the test on SN12C renal, in the test with OVCAR-8 ovarian, with MCF7 breast, in the test on MDA-MB-231 breast, in the test on SK-MEL-28 melanoma and in the test on HL-60(TB) leukemia was greater than 10 µM in each case. Also, the TGI in the test on CCRF-CEM leukemia, in the test with OVCAR-5 ovarian, with NCI-H226 lung, in the test with 786-0 renal, in the test on KM12 colon and in the test on SF-539 CNS was greater than 10 µM in each case. Moreover, the TGI in the test on BT-549 breast, in the test on IGROV1 ovarian, in the test with MALME-3M melanoma, with NCI-H460 lung, with DU-145 prostate and with A549 NSCLC was greater than 10 µM in each case. The TGI in the test on A498 renal and in the test with MDA-MB-435 was greater than 10 µM each time.

As to `CC1(C)C(=O)C2(C#N)CCC1C2` (stereo not given), the TGI with SN12C renal, in the test on OVCAR-8 ovarian, with MCF7 breast, in the test with MDA-MB-231 breast, in the test with SK-MEL-28 melanoma and in the test on HL-60(TB) leukemia was greater than 100 µM each time. The TGI with CCRF-CEM leukemia, in the test with OVCAR-5 ovarian, with NCI-H226 lung, in the test with 786-0 renal, in the test with KM12 colon and in the test on SF-539 CNS was greater than 100 µM throughout. The TGI in the test with BT-549 breast, in the test with IGROV1 ovarian, in the test on MALME-3M melanoma, in the test on NCI-H460 lung, in the test on DU-145 prostate and in the test with A549 NSCLC was greater than 100 µM throughout. The TGI in the test on A498 renal and in the test with MDA-MB-435 was greater than 100 µM each time.

`CO[C@]12C[C@H](CNC(=O)c3cc(Br)c(Br)[nH]3)O[C@H]1NC(=O)N2`: the TGI with SN12C renal, in the test on OVCAR-8 ovarian, in the test on MCF7 breast, in the test with MDA-MB-231 breast, in the test on SK-MEL-28 melanoma and with HL-60(TB) leukemia was greater than 100 µM in each case. In addition, the TGI in the test on CCRF-CEM leukemia, in the test with OVCAR-5 ovarian, in the test with NCI-H226 lung, in the test with 786-0 renal, in the test with KM12 colon and in the test on SF-539 CNS was greater than 100 µM in each case. For the same compound, the TGI with BT-549 breast, in the test on IGROV1 ovarian, with MALME-3M melanoma, in the test with NCI-H460 lung, in the test with DU-145 prostate and in the test with A549 NSCLC was greater than 100 µM throughout. Also, the TGI with A498 renal and with MDA-MB-435 was greater than 100 µM throughout.

For the compound `O=C(CCc1cccc(O)c1)NCCc1cccc(OCc2ccccc2)c1`, the TGI in the test on SN12C renal is 45.1 µM; in the test on OVCAR-8 ovarian it was 67.9 µM; with MCF7 breast it was 40.4 µM; in the test on MDA-MB-231 breast, 40.7 µM; with SK-MEL-28 melanoma it was 31.8 µM; with HL-60(TB) leukemia, greater than 100 µM. In addition, the TGI with CCRF-CEM leukemia was 42.4 µM; with OVCAR-5 ovarian, 57.9 µM; in the test on NCI-H226 lung, 31.5 µM; in the test on 786-0 renal, 67.5 µM; in the test on KM12 colon, 21.3 µM; with SF-539 CNS, 30.7 µM. Besides, the TGI with BT-549 breast is 32.5 µM; in the test on IGROV1 ovarian it was 25.2 µM; with MALME-3M melanoma it was 39.2 µM; in the test on NCI-H460 lung, 34.5 µM; in the test with DU-145 prostate it was greater than 80 µM; with A549 NSCLC, greater than 70.9 µM. The TGI with A498 renal was greater than 55.2 µM; in the test with MDA-MB-435, 29.6 µM.

On to `CC(=O)NNc1nc(C)c(C(/C=C/c2ccc(NC(C)=O)cc2)=N/NS(=O)(=O)c2ccc(C)cc2)s1`, for which the TGI in the test with SN12C renal, with OVCAR-8 ovarian, in the test with MCF7 breast, in the test with MDA-MB-231 breast, in the test with SK-MEL-28 melanoma and in the test on HL-60(TB) leukemia was greater than 100 µM in each case. Besides, the TGI in the test with CCRF-CEM leukemia, in the test with OVCAR-5 ovarian, in the test on NCI-H226 lung, with 786-0 renal, in the test on KM12 colon and in the test on SF-539 CNS was greater than 100 µM in each case. In addition, the TGI in the test with BT-549 breast, in the test on IGROV1 ovarian, in the test on MALME-3M melanoma, in the test on NCI-H460 lung, with DU-145 prostate and in the test with A549 NSCLC was greater than 100 µM throughout. Also, the TGI in the test with A498 renal and with MDA-MB-435 was greater than 100 µM each time.

With `Cc1cc(=O)[nH]c2c3c(ccc12)OC(C)(C)C=C3`, the TGI was greater than 49.6 µM in the test with SN12C renal; greater than 100 µM with OVCAR-8 ovarian; greater than 100 µM in the test with MCF7 breast; greater than 100 µM in the test on MDA-MB-231 breast; greater than 100 µM in the test on SK-MEL-28 melanoma; greater than 100 µM in the test on HL-60(TB) leukemia. The TGI in the test on CCRF-CEM leukemia is greater than 100 µM; in the test with OVCAR-5 ovarian it was greater than 66.1 µM; in the test on NCI-H226 lung, greater than 33.6 µM; in the test with 786-0 renal it was greater than 62.7 µM; in the test on KM12 colon, greater than 100 µM; in the test on SF-539 CNS, greater than 23.8 µM. In addition, the TGI with BT-549 breast, in the test with IGROV1 ovarian, with MALME-3M melanoma, in the test on NCI-H460 lung, with DU-145 prostate and in the test with A549 NSCLC was greater than 100 µM each time. For the same compound, the TGI in the test with A498 renal was greater than 87.7 µM; with MDA-MB-435 it was 4.9 µM.
